In article PMC3878827, “Synthesis and biological characterisation of ^18F-SIG343 and ^18F-SIG353, novel and high selectivity σ2 radiotracers, for tumour imaging properties” (EJNMMI Research, 2013):

What was measured:
[1] = biological target: T1, σ1 receptors (Rattus norvegicus, UniProt Q9R0C9); test: Radioreceptor binding assay, σ1 (3H-(+)-pentazocine, rat brain membrane); conditions: determined by ANSTO LifeSciences, read-out: Affinity σ1 (Ki)
T1 construct: aliquots of diluted rat brain membrane (300 μg of protein); from tissue; host or cells: male Sprague-Dawley rat brain membrane homogenate
T1 sequence (Q9R0C9 whole entry): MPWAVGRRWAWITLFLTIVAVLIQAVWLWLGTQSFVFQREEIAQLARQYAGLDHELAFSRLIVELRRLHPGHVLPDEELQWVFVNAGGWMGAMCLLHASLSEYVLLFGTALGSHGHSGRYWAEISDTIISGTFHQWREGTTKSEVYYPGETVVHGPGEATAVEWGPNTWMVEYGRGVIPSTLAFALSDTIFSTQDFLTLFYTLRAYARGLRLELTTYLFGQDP
Protocol: (§1) The test compounds were solubilised in DMSO and diluted in 50 mmol/L Tris-HCl (pH 8.0). Membrane homogenates were prepared from male Sprague-Dawley rat brains as previously described. The binding of σ ligands to σ1 and σ2 receptors was determined according to literature methods with minor modification. Briefly, the percentage of inhibition was determined by incubating, in triplicate, aliquots of diluted rat brain membrane (300 μg of protein) with 10^-11 to 10^-5 mol/L concentrations of the studied drugs in 50 mmol/L Tris-HCl (pH 8.0) with ^3H-(+)-pentazocine (3 nmol/L) at 37°C for 2.5 h for σ1 receptors or with ^3H-DTG (10 nmol/L) and (+)-pentazocine (1 μmol/L) at 25°C for 1.5 h for σ2 receptors. […] After incubation, the reaction was terminated by rapid filtration using a Brandel 48-well cell harvester (Brandel, Gaithersburg, MD, USA) over Whatman GF/B glass fibre filters that were soaked in a solution of 0.5% polyethyleneimine at 4°C for at least 2 h before use. […] The filters were collected and the amount of bound radioactivity was measured using a β-scintillation counter (Tri-Carb 2100TR, Packard Instrument Co., Downers Grove, IL, USA). The percentage inhibition of the studied drugs, at concentrations of 10^-5 and 10^-7 mol/L, was also determined for the cross activity at a number of other neuroreceptors (Caliper LifeSciences, MA, USA). […]

[2] = biological target: T2, σ2 receptors (Rattus norvegicus, UniProt Q5U3Y7); test: Radioreceptor binding assay, σ2 (3H-DTG + (+)-pentazocine, rat brain membrane); conditions: for Ki: rat brain membrane, 3H-DTG with (+)-pentazocine, determined by ANSTO LifeSciences, read-out: Affinity σ2 (Ki); for Selectivity σ2:σ1: ratio of Ki values, Table 2
T2 sequence (Q5U3Y7 1-176): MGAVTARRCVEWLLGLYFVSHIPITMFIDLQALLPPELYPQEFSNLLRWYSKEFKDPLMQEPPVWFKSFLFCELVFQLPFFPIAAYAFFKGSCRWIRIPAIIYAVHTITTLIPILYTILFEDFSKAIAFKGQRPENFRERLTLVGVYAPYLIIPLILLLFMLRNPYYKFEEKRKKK
Protocol: The test compounds were solubilised in DMSO and diluted in 50 mmol/L Tris-HCl (pH 8.0). Membrane homogenates were prepared from male Sprague-Dawley rat brains as previously described. The binding of σ ligands to σ1 and σ2 receptors was determined according to literature methods with minor modification. Briefly, the percentage of inhibition was determined by incubating, in triplicate, aliquots of diluted rat brain membrane (300 μg of protein) with 10^-11 to 10^-5 mol/L concentrations of the studied drugs in 50 mmol/L Tris-HCl (pH 8.0) with ^3H-(+)-pentazocine (3 nmol/L) at 37°C for 2.5 h for σ1 receptors or with ^3H-DTG (10 nmol/L) and (+)-pentazocine (1 μmol/L) at 25°C for 1.5 h for σ2 receptors. […] After incubation, the reaction was terminated by rapid filtration using a Brandel 48-well cell harvester (Brandel, Gaithersburg, MD, USA) over Whatman GF/B glass fibre filters that were soaked in a solution of 0.5% polyethyleneimine at 4°C for at least 2 h before use. Filters were washed three times with 5 mL of ice-cold wash buffer (50 mmol/L Tris HCl, pH 7.4). The filters were collected and the amount of bound radioactivity was measured using a β-scintillation counter (Tri-Carb 2100TR, Packard Instrument Co., Downers Grove, IL, USA). The percentage inhibition of the studied drugs, at concentrations of 10^-5 and 10^-7 mol/L, was also determined for the cross activity at a number of other neuroreceptors (Caliper LifeSciences, MA, USA). The IC50 values were then converted to apparent Ki values using the Cheng-Prusoff equation and radioligand Kd values.

[3] = biological target: Opioid, non-selective; test: Cross activity at neuroreceptors (Caliper LifeSciences): opioid; assay type: binding; conditions: determined by Caliper LifeSciences; read-out: Affinity Opioid, non-selective (IC50)
Protocol: as §1

[4] = biological target: Dopamine, non-selective; test: Cross activity at neuroreceptors (Caliper LifeSciences): dopamine; assay type: binding; conditions: determined by Caliper LifeSciences; read-out: Affinity Dopamine, non-selective (IC50)
Protocol: as §1

[5] = biological target: Serotonin, non-selective; test: Cross activity at neuroreceptors (Caliper LifeSciences): serotonin; assay type: binding; conditions: determined by Caliper LifeSciences; read-out: Affinity Serotonin, non-selective (IC50)
Protocol: as §1

[6] = biological target: T3, CB1, non-selective (Homo sapiens, UniProt P21554); test: Cross activity at neuroreceptors (Caliper LifeSciences): CB1; assay type: binding; conditions: determined by Caliper LifeSciences; read-out: Affinity CB1, non-selective (IC50)
T3 construct: Caliper LifeSciences
T3 sequence (P21554 whole entry): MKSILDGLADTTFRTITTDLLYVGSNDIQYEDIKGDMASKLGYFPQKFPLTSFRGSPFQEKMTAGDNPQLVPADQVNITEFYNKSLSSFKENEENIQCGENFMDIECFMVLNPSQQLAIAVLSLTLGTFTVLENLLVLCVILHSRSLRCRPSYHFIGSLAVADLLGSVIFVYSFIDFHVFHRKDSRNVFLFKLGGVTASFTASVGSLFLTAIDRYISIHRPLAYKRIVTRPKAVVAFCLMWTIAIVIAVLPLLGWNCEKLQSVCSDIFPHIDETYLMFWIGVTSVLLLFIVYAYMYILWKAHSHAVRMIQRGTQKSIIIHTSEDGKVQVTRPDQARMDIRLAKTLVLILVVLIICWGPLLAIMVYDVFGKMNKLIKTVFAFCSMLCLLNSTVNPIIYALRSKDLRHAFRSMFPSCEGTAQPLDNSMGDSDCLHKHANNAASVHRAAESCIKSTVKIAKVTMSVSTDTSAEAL
Protocol: as §1

[7] = biological target: Muscarinic, non-selective; test: Cross activity at neuroreceptors (Caliper LifeSciences): muscarinic; assay type: binding; conditions: determined by Caliper LifeSciences; read-out: Affinity Muscarinic, non-selective (IC50)
Protocol: as §1

[8] = Lipophilicity by RP-HPLC (logP7.5); assay type: physicochemical; conditions: logP7.5, phosphate buffer pH 7.5
Protocol: The lipophilicity of SIG343 and SIG353 were assessed using RP-HPLC by determining the logP7.5 value using literature procedures.

[9] = rats, intravenous bolus; cited from earlier work

For `COc1cc2c(cc1OC)CN(CCCCN1C(=O)c3ccc(F)cc3C1=O)CC2` [SIG343, 2-(4-(6,7-Dimethoxy-3,4-dihydroisoquinolin-2(1H)-yl)butyl)-5-fluoroisoindoline-1,3-dione], the Ki [1] was 1600 nM, the Ki [2] was 8 nM and the “Selectivity σ2:σ1” value [2] was 200. The IC50 [3] was > 10 µM, the IC50 [4] was > 10 µM and the IC50 [5] was > 10 µM. For the same molecule, the IC50 [6] was > 10 µM, the IC50 [7] was > 10 µM and the chromatographic logP [8] was 3.11 ± 0.08.

For `COc1cc2c(cc1OC)CN(CCCCCN1C(=O)c3ccc(F)cc3C1=O)CC2` [SIG353, 2-(5-(6,7-Dimethoxy-3,4-dihydroisoquinolin-2(1H)-yl)pentyl)-5-fluoroisoindoline-1,3-dione], the Ki [1] was 266 nM, the Ki [2] was 2.4 nM and the “Selectivity σ2:σ1” value [2] was 110. The IC50 [3] was > 10 µM, the IC50 [4] was > 10 µM and the IC50 [5] was > 10 µM. The IC50 [6] was > 10 µM, the IC50 [7] was > 10 µM and the chromatographic logP [8] was 3.47 ± 0.09.

For `O=C(CCCN1CCC(O)(c2ccc(Cl)cc2)CC1)c1ccc(F)cc1` [haloperidol], the Terminal half-life [9] is listed as 1.5 h.
